The IC50 is the concentration at which inhibition is half-maximal. A higher IC50 goes with weaker potency. By Ki is commonly meant a dissociation constant, usually derived from enzyme kinetics or from competition with a known ligand. A high value points to weaker binding.

Where a SMILES comes first, the peptide text is derived from it. The star is where a group is joined. Cbz = O=C(OCc1ccccc1)*; CH2Cl = ClC*; CH2F = FC*

The values below come from ChEMBL document CHEMBL5715260, “Selectivity Literature for EUbOPEN Chemogenomic Library” (2024).

What all share (parameters): recommended concentration 1 uM
Test [1] addresses T1, Caspase-5 (Homo sapiens, UniProt P51878).
T1 sequence (P51878 whole entry): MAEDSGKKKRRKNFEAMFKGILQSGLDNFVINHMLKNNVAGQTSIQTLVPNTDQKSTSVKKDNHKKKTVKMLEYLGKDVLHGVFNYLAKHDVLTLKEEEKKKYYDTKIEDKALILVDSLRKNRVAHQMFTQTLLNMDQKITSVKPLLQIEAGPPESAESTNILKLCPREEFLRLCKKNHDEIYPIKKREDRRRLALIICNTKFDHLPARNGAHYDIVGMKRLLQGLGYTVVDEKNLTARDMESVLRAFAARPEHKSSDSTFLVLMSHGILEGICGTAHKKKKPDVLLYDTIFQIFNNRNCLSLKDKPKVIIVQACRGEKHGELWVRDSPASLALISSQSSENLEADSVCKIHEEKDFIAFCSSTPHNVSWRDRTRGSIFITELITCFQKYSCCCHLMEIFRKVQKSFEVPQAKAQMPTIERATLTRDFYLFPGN
Briefly: (§1) Selectivity interaction (Enzymatic assay) EUB0002176a CASP5.

For test [2], the target named is T1, Caspase-5. The description is as §1. The source holds these as a separate data set.
The target of test [3] is T2, Caspase-7 (Homo sapiens, UniProt P55210).
T2 sequence (P55210 whole entry): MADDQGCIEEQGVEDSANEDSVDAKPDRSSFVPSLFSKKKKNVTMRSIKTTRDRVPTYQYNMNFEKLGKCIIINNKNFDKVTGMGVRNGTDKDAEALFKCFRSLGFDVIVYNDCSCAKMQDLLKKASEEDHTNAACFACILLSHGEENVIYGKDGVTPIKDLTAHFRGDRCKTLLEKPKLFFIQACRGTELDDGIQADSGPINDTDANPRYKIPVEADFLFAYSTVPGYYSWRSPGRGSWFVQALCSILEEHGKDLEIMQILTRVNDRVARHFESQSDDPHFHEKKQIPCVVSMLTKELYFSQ
Briefly: (§2) Selectivity interaction (Enzymatic assay) EUB0002178aAD CASP7.

Test [4] deals with T2, Caspase-7. The description is as §2. This is another data set of the same source.
Test [5] addresses T3, Caspase-8 (Homo sapiens, UniProt Q14790). Briefly: (§3) Selectivity interaction (Enzymatic assay) EUB0002178aAD CASP8.
The target in test [6] is T4, Caspase-9 (Homo sapiens, UniProt P55211).
T4 sequence (P55211 whole entry): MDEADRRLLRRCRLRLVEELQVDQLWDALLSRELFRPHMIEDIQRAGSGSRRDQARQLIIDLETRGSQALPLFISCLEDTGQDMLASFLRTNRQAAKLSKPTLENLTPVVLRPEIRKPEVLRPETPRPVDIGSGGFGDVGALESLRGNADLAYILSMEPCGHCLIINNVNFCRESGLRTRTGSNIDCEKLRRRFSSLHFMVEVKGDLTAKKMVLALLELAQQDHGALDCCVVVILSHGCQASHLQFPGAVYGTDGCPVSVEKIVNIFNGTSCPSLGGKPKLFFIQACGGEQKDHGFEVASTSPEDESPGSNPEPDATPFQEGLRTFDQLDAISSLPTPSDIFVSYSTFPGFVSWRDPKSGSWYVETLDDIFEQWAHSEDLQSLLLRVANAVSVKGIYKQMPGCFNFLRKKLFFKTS
The experiment in a line: (§4) Selectivity interaction (Enzymatic assay) EUB0002178aAD CASP9.

In test [7] the target is T3, Caspase-8. The test is described as §3. This is another data set of the same source.
The target in test [8] is T4, Caspase-9. The description is as §4. This is another data set of the same source.
The target of test [9] is T2, Caspase-7. The experiment in a line: Selectivity interaction (Eurofins (enzymatic assay)) EUB0002202a CASP7.
For test [10], the target named is T3, Caspase-8. Briefly: Selectivity interaction (Eurofins (enzymatic assay)) EUB0002202a CASP8.
The target of test [11] is T4, Caspase-9. The experiment in a line: Selectivity interaction (Eurofins (enzymatic assay)) EUB0002202a CASP9.
In test [12] the target is T4, Caspase-9. Briefly: Selectivity interaction (Enzymatic assay) EUB0002177aAD CASP9.
The target in test [13] is Poly [ADP-ribose] polymerase 1 (Homo sapiens, UniProt P09874). Briefly: Selectivity interaction (Enzymatic assay) EUB0002249a PARP1.
The target of test [14] is Poly [ADP-ribose] polymerase tankyrase-1 (Homo sapiens, UniProt O95271). Briefly: Selectivity interaction (Enzymatic assay) EUB0002249a TNKS1.
The target in test [15] is N-lysine methyltransferase SMYD2 (Homo sapiens, UniProt Q9NRG4). The experiment in a line: Selectivity interaction (Enzymatic assay) EUB0002243aAD SMYD2.
Chain of N-lysine methyltransferase SMYD2 (Q9NRG4 whole entry): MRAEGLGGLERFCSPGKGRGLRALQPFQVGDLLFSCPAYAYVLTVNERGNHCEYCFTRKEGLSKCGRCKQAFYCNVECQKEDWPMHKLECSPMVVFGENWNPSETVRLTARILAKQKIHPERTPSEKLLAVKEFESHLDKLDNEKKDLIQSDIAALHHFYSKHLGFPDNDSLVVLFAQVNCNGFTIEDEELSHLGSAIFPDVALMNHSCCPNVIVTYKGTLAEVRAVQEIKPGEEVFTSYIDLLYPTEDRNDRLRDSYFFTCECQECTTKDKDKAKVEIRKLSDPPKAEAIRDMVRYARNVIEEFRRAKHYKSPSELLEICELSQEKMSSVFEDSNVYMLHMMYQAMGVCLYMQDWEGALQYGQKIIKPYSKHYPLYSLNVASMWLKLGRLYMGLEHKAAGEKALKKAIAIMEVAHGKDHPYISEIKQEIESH

T3 sequence (Q14790 217-374 limits assumed): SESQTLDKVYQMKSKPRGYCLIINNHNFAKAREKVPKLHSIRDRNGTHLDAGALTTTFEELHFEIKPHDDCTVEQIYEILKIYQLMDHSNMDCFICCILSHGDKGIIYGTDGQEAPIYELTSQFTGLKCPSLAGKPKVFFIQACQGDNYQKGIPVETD
T3 sequence (Q14790 385-479 limits assumed): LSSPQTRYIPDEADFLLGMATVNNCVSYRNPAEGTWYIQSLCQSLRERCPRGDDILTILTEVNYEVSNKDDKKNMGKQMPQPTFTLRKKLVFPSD
Chain of Poly [ADP-ribose] polymerase tankyrase-1 (O95271 whole entry): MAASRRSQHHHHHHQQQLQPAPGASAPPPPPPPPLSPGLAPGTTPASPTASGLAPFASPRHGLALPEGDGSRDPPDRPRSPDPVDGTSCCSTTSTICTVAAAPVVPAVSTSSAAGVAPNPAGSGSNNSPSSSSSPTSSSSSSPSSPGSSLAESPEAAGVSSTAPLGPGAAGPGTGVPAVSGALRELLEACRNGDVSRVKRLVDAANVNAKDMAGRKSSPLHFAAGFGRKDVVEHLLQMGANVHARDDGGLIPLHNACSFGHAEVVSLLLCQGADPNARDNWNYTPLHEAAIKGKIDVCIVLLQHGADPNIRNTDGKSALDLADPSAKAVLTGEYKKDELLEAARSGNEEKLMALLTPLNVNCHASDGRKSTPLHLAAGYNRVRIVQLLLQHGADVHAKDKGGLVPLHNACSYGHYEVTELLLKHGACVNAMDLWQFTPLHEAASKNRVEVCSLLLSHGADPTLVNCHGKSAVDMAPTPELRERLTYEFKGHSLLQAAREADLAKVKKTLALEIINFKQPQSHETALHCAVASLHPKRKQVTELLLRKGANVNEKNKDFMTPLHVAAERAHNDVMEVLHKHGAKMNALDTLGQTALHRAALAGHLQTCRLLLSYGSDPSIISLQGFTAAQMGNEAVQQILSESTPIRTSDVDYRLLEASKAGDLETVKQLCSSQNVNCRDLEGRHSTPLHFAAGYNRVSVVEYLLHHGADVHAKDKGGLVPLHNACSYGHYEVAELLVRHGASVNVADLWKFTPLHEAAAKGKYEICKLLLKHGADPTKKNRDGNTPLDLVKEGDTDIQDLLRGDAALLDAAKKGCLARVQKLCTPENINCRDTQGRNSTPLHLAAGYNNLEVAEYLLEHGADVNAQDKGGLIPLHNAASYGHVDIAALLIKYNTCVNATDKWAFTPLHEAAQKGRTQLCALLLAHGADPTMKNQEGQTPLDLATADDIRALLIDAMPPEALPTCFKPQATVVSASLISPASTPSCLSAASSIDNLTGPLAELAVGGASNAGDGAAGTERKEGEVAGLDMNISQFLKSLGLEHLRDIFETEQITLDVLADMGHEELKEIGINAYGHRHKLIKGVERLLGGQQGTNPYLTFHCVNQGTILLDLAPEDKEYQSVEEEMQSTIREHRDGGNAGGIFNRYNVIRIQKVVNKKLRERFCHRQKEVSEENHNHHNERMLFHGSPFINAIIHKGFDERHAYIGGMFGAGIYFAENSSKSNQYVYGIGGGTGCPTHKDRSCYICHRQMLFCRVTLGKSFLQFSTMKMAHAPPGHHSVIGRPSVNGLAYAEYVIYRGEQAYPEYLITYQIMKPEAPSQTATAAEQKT
Chain of Poly [ADP-ribose] polymerase 1 (P09874 whole entry): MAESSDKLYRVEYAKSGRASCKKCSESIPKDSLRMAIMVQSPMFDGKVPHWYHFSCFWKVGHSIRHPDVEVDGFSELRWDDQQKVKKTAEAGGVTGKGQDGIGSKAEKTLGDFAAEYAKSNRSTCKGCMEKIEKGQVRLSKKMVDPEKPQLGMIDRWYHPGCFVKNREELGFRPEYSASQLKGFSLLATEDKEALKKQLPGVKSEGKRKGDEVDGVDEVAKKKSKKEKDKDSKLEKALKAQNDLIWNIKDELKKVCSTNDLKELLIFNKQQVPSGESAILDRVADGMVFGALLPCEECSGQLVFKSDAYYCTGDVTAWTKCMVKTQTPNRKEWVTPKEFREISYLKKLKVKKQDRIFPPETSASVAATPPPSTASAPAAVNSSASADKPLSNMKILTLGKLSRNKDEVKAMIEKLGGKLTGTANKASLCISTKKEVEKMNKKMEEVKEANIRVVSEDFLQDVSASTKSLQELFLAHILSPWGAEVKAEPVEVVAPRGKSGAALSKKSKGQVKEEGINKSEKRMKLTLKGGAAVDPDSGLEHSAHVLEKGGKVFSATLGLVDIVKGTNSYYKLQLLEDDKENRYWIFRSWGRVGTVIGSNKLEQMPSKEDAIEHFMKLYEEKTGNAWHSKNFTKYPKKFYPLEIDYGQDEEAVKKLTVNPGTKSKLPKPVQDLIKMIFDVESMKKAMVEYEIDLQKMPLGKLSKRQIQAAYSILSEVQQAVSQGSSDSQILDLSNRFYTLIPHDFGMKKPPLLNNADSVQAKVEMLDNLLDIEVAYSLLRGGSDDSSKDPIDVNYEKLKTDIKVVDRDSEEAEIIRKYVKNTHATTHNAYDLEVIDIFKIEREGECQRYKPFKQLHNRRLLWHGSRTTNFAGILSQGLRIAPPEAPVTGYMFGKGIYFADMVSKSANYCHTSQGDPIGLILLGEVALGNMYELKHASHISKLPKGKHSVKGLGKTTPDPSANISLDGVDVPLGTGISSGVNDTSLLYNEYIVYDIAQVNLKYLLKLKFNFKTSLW

In the case of `CC(=O)N[C@@H](Cc1ccccc1)C(=O)N[C@@H](CC(C)C)C(=O)N[C@H](C(=O)N[C@@H](CC(=O)O)C(=O)CCl)[C@@H](C)O` (Ac-FLTD-CH2Cl), the IC50 against Caspase-5 [1] and against Caspase-5 [2] was 329 nM in each case.

`CC[C@H](C)[C@H](NC(=O)[C@H](CCC(=O)O)NC(=O)[C@@H](NC(C)=O)C(C)C)C(=O)N[C@H](C=O)CC(=O)O` (Ac-VEID-aldehyde): the IC50 was 162 nM against Caspase-7 [3]; 162 nM on Caspase-7 [4]; 26 nM on Caspase-8 [5]; 2 nM on Caspase-9 [6]; 26 nM against Caspase-8 [7]; 2 nM at Caspase-9 [8].

With `COC(=O)CC[C@H](NC(=O)[C@H](Cc1c[nH]c2ccccc12)NC(=O)OCc1ccccc1)C(=O)N[C@@H](Cc1cnc[nH]1)C(=O)N[C@@H](CC(=O)OC)C(=O)CF` (Cbz-WE(OMe)HD(OMe)-CH2F), the results for the IC50 at Caspase-7 [9], at Caspase-8 [10] and on Caspase-9 [11] were 580 nM, 220 nM and 240 nM, respectively.

`CC[C@H](C)[C@H](NC(C)=O)C(=O)N[C@@H](CCC(=O)O)C(=O)N[C@H](C(=O)N[C@H](C=O)CC(=O)O)[C@@H](C)O` (Ac-IETD-aldehyde) registered an IC50 at Caspase-9 [12] of 35 nM.

For `NC(=O)c1cccc(NC(=O)CCC(=O)NCCc2cn(CCNS(=O)(=O)c3cccc(C(=O)O)c3)nn2)c1`, the values for the half-inhibitory concentration (IC50) in test [13] and in [14] were 11700 nM and 9040 nM, respectively.

As to `CN(C)CCCN(CC[C@H](N)C(=O)O)C[C@H]1O[C@@H](n2cnc3c(N)ncnc32)[C@H](O)[C@@H]1O`, in [15], the affinity, expressed as Ki, was 345 nM.
